US20240408068A1, “Helicase Primase Inhibitors For Treating Cancer In A Combination Therapy With Oncolytic Viruses” (priority 2018, published 2024)
Read-outs that look alike come from different tables or passages of the source.

Tests used:
[1] = system: HSV-1; assay: In vitro activity, HSV-1 infected Vero cells; type: cell-based
Experimental: (§1) The in vitro activity of the new compounds was measured as described in WO2017/174640 and in WO2019/068817.

[2] = system: HSV-2; assay: In vitro activity, HSV-2 infected Vero cells; type: cell-based
Experimental: as §1

[3] = system: HSV-1 ACV resistant; assay: In vitro activity, HSV-1 ACV resistant; type: cell-based; settings: Human alphaherpesvirus 1
Experimental: as §1

[4] = system: HSV-1; assay: Second oHSV experiment (repeated virus injection): number of dead animals by day; type: in vivo, mice; settings: for Number of dead animals by day: n=10; for rescue of mice from virus-induced death: second experiment, multiple intratumoral HSV injections, 10 mg/kg po
Experimental: The methods of the first experiment were used and the experimental design was modified in the second experiment as follows: • 1. The oncolytic herpesvirus was, in contrast to the first experiment, injected multiple times at a constant dose at distinct intervals. • 2. In addition to Example 7(-) used in the first experiment, the efficacy of a series of helicase primase inhibitors was tested in the second experiment to enable the class of helicase primase inhibitors in general.
Pharmacological animal groups (10 animals per group, 80 animals in total and 5 animals per group in the satellite group; 50 animals in total used for analysis of plasma and tumor samples) were organized as such: • 1. Control virus-untreated group: test compound vehicle, oral gavage, once a day, for 2 days and starting 48 h after each virus injection time-point. • 2. Control virus vehicle-treated group: 100 μL of virus vehicle by intratumoral injection when tumors reached an average volume of ˜50 mm^3 (i.e. on day 11) then 2 injections spaced 5 days apart from each other; with test compound vehicle, oral gavage, once a day, for 2 days and starting 48 h after each virus injection time-point. • 3. HSV-1 (5×10^7 pfu)-treated group: 100 μL of HSV-1 (5×10^7) by intratumoral injection when tumors reached an average volume of ˜50 mm^3 (i.e. on day 11) then 2 injections spaced 5 days apart from each other; with test compound vehicle, oral gavage, once a day, for 2 days and starting 48 h after each virus injection time-point and with anti-PD-1 vehicle, intraperitoneal injection (100 μL PBS) on the same day as the virus injection, and then 3 administrations spaced 3 days apart from each other (days 11, 14, 17 and 20). • 4. HSV-1 (5×10^7 pfu)+anti-PD1-treated group: 100 μL of HSV-1 (5×10^7 pfu) intratumoral injection when tumors reached an average volume of ˜50 mm^3 (i.e. on day 11) then 2 injections spaced 5 days apart from each other; with test compound vehicle, oral gavage, once a day, for 2 days and starting 48 h after each virus injection time-point and with anti-PD-1 (5 mg/kg), intraperitoneal injection on the same day as the virus injection, and then 3 administrations spaced 3 days apart from each other (days 11, 14, 17 and 20). • 5. HSV-1 (5×10^7 pfu)-Example 10—treated group: 100 μL of HSV-1 (5×10^7 pfu) intratumoral injection when tumors reached an average volume of ˜50 mm^3 (i.e. on day 11) then 2 injections spaced 5 days apart from each other; with Example 10 (10 mg/kg), oral gavage, once a day, for 2 days and starting 48 h after each virus injection time-point (days 13, 14, 18, 19, 23 and 24). • 6. HSV-1 (5×10^7 pfu)-pritelivir-treated group: 100 μL of HSV-1 (5×10^7 pfu) intratumoral injection when tumors reached an average volume of ˜50 mm^3 (i.e. on day 11) then 2 injections spaced 5 days apart from each other; with pritelivir (10 mg/kg), oral gavage, once a day, for 2 days and starting 48 h after each virus injection time-point (days 13, 14, 18, 19, 23 and 24). • 7. HSV-1 (5×10^7 pfu)-amenamevir-treated group: 100 μL of HSV-1 (5×10^7 pfu) intratumoral injection when tumors reached an average volume of ˜5 0mm^3 (i.e. on day 11) then 2 injections spaced 5 days apart from each other; with amenamevir (10 mg/kg), oral gavage, once a day, for 2 days and starting 48 h after each virus injection time-point (days 13, 14, 18, 19, 23 and 24). • 8. HSV-1 (5×10^7 pfu)-Example 10+anti-PD1-treated group: 100 μL of HSV-1 (5×10^7 pfu) intratumoral injection when tumors reached an average volume of ˜50 mm^3 (i.e. on day 11) then 2 injections spaced 5 days apart from each other; with Example 10 (10 mg/kg), oral gavage, once a day, for 2 days and starting 48 h after each virus injection time-point (days 13, 14, 18, 19, 23 and 24) and with anti-PD-1 (5 mg/kg), intraperitoneal injection on the same day as the virus injection and then 3 administrations spaced 3 days apart each other (days 11, 14, 17 and 20). Results of the Second oHSV Experiment […]

[5] = described in WO2019/068817; cited from earlier work
[6] = system: carboanhydrase; settings: described in WO2019/068817; cited from earlier work

Cc1nc(N(C)C(=O)C2Cc3ccc(-c4cc(F)ccc4F)cc3C2)sc1S(N)(=O)=O (racemic) [Example 1, 5-(2,5-Difluorophenyl)-N-methyl-N-(4-methyl-5-sulfamoylthiazol-2-yl)-2,3-di-hydro-1H-indene-2-carboxamide]
IC50 ([1]; Human alphaherpesvirus 1, Vero): 16 nM | IC50 ([2]; Human alphaherpesvirus 2, Vero): 50 nM | IC50 [3]: 16 nM

Cc1nc(N(C)C(=O)C2Cc3ccc(-c4cc(F)ccc4F)cc3C2)sc1S(C)(=N)=O (racemic) [Example 4, 5-(2,5-Difluorophenyl)-N-methyl-N-(4-methyl-5-(S-methylsulfonimidoyl)thiazol-2-yl)-2,3-dihydro-1H-indene-2-carboxamide]
IC50 ([1]; Human alphaherpesvirus 1, Vero): 750 nM | IC50 ([2]; Human alphaherpesvirus 2, Vero): 1500 nM | IC50 [3]: 750 nM

Cc1nc(N(C)C(=O)C2Cc3ccc(-c4cc(F)ccc4F)cc3C2)sc1S(C)(=N)=O (single isomer, unassigned) [Example 5, 5-(2,5-Difluorophenyl)-N-methyl-N-(4-methyl-5-(S-methylsulfonimidoyl)thiazol-2-yl)-2,3-dihydro-1H-indene-2-carboxamide]
IC50 [1]: 20000 nM | IC50 [2]: 20000 nM

Cc1nc(N(C)C(=O)C2Cc3ccc(-c4cc(F)ccc4F)cc3C2)sc1S(C)(=N)=O (single isomer, unassigned) [Example 6, 5-(2,5-Difluorophenyl)-N-methyl-N-(4-methyl-5-(S-methylsulfonimidoyl)thiazol-2-yl)-2,3-dihydro-1H-indene-2-carboxamide]
IC50 [1]: 75 nM | IC50 [2]: 750 nM

Cc1nc(N(C)C(=O)C2Cc3ccc(-c4cc(F)ccc4F)cc3C2)sc1S(C)(=N)=O (single isomer, unassigned) [Example 8, 5-(2,5-Difluorophenyl)-N-methyl-N-(4-methyl-5-(S-methylsulfonimidoyl)thiazol-2-yl)-2,3-dihydro-1H-indene-2-carboxamide]
IC50 [1]: 175 nM | IC50 [2]: 1500 nM

Cc1nc(N(C)C(=O)C2Cc3ccc(-c4cc(F)ccc4F)cc3C2)sc1S(C)(=N)=O (single isomer, unassigned) [Example 9, 5-(2,5-Difluorophenyl)-N-methyl-N-(4-methyl-5-(S-methylsulfonimidoyl)thiazol-2-yl)-2,3-dihydro-1H-indene-2-carboxamide]
IC50 [1]: 10000 nM | IC50 [2]: 45000 nM

Cc1nc(N(C)C(=O)C2Cc3ccc(-c4cc(F)ccc4F)cc3C2)sc1S(N)(=O)=O (single isomer, unassigned; (+)) [Example 3, (+)-5-(2,5-difluorophenyl)-N-methyl-N-(4-methyl-5-sulfamoylthiazol-2-yl)-2,3-dihydro-1H-indene-2-carboxamide]
IC50 [1]: 0.5 nM | IC50 [2]: 16 nM

Cc1nc(N(C)C(=O)C2Cc3ccc(-c4cc(F)ccc4F)cc3C2)sc1S(N)(=O)=O (single isomer, unassigned; (-)) [Example 2, (−)-5-(2,5-Difluorophenyl)-N-methyl-N-(4-methyl-5-sulfamoylthiazol-2-yl)-2,3-dihydro-1H-indene-2-carboxamide]
IC50 [1]: 2000 nM | IC50 [2]: 16000 nM

Nc1nc2c(ncn2COCCO)c(=O)[nH]1 [Acyclovir, reference compound]
IC50 ([1]; Human alphaherpesvirus 1, Vero): 500 to 3000 nM | IC50 ([2]; Human alphaherpesvirus 2, Vero): 500 to 3000 nM | IC50 [3]: > 25000 nM

Cc1nc(N(C)C(=O)Cc2ccc(-c3cc(F)ccc3F)cc2)sc1S(N)(=O)=O [Example 10, 2-(2′,5′-Difluoro-[1,1′-biphenyl]-4-yl)-N-methyl-N-(4-methyl-5-sulfamoylthiazol-2-yl)acetamide]
Number of dead animals by day ([4]; day 7, HSV-1 5×10^7 pfu + Example 10 10 mg/kg po): 0 | Number of dead animals by day ([4]; day 7, HSV-1 5×10^7 pfu + anti-PD-1 5 mg/kg ip + Example 10 10 mg/kg po): 0 | Number of dead animals by day ([4]; day 9, HSV-1 5×10^7 pfu + Example 10 10 mg/kg po): 0 | Number of dead animals by day ([4]; day 9, HSV-1 5×10^7 pfu + anti-PD-1 5 mg/kg ip + Example 10 10 mg/kg po): 0 | Number of dead animals by day ([4]; day 11, HSV-1 5×10^7 pfu + Example 10 10 mg/kg po): 0 | Number of dead animals by day ([4]; day 11, HSV-1 5×10^7 pfu + anti-PD-1 5 mg/kg ip + Example 10 10 mg/kg po): 0 | Number of dead animals by day ([4]; day 14, HSV-1 5×10^7 pfu + Example 10 10 mg/kg po): 0 | Number of dead animals by day ([4]; day 14, HSV-1 5×10^7 pfu + anti-PD-1 5 mg/kg ip + Example 10 10 mg/kg po): 0 | Number of dead animals by day ([4]; day 16, HSV-1 5×10^7 pfu + Example 10 10 mg/kg po): 0 | Number of dead animals by day ([4]; day 16, HSV-1 5×10^7 pfu + anti-PD-1 5 mg/kg ip + Example 10 10 mg/kg po): 0 | Number of dead animals by day ([4]; day 18, HSV-1 5×10^7 pfu + Example 10 10 mg/kg po): 1 | Number of dead animals by day ([4]; day 18, HSV-1 5×10^7 pfu + anti-PD-1 5 mg/kg ip + Example 10 10 mg/kg po): 1 | Number of dead animals by day ([4]; day 21, HSV-1 5×10^7 pfu + Example 10 10 mg/kg po): 1 | Number of dead animals by day ([4]; day 21, HSV-1 5×10^7 pfu + anti-PD-1 5 mg/kg ip + Example 10 10 mg/kg po): 1 | rescue of mice from virus-induced death [4]: the mice can be rescued

Cc1cccc(C)c1N(CC(=O)Nc1ccc(-c2ncon2)cc1)C(=O)C1CCS(=O)(=O)CC1 [amenamevir, Amenamevir]
Number of dead animals by day ([4]; day 7, HSV-1 5×10^7 pfu + amenamevir 10 mg/kg po): 0 | Number of dead animals by day ([4]; day 9, HSV-1 5×10^7 pfu + amenamevir 10 mg/kg po): 0 | Number of dead animals by day ([4]; day 11, HSV-1 5×10^7 pfu + amenamevir 10 mg/kg po): 0 | Number of dead animals by day ([4]; day 14, HSV-1 5×10^7 pfu + amenamevir 10 mg/kg po): 0 | Number of dead animals by day ([4]; day 16, HSV-1 5×10^7 pfu + amenamevir 10 mg/kg po): 0 | Number of dead animals by day ([4]; day 18, HSV-1 5×10^7 pfu + amenamevir 10 mg/kg po): 2 | Number of dead animals by day ([4]; day 21, HSV-1 5×10^7 pfu + amenamevir 10 mg/kg po): 2 | rescue of mice from virus-induced death [4]: the mice can be rescued

Cc1nc(N(C)C(=O)Cc2ccc(-c3cc(F)ccc3F)cc2)sc1[S@@](C)(=N)=O [drawing 1]
brain penetration [5]: improved brain penetration | off-target carboanhydrase activity [6]: no off-target carboanhydrase activity

Cc1nc(N(C)C(=O)Cc2ccc(-c3ccccn3)cc2)sc1S(N)(=O)=O [pritelivir, Pritelivir]
Number of dead animals by day ([4]; day 7, HSV-1 5×10^7 pfu + pritelivir 10 mg/kg po): 0 | Number of dead animals by day ([4]; day 9, HSV-1 5×10^7 pfu + pritelivir 10 mg/kg po): 0 | Number of dead animals by day ([4]; day 11, HSV-1 5×10^7 pfu + pritelivir 10 mg/kg po): 0 | Number of dead animals by day ([4]; day 14, HSV-1 5×10^7 pfu + pritelivir 10 mg/kg po): 0 | Number of dead animals by day ([4]; day 16, HSV-1 5×10^7 pfu + pritelivir 10 mg/kg po): 0 | Number of dead animals by day ([4]; day 18, HSV-1 5×10^7 pfu + pritelivir 10 mg/kg po): 0 | Number of dead animals by day ([4]; day 21, HSV-1 5×10^7 pfu + pritelivir 10 mg/kg po): 0 | rescue of mice from virus-induced death [4]: the mice can be rescued
